We go through two compounds from patent US20240252410A1, “COMPOUNDS FOR USE IN KERATIN TREATMENT” (CrossChem Limited, priority 2023, published 2024).

Each structure is given as a SMILES string.

Experiment [1] is described as follows: Hair tensile strength test (digital force gauge). As to conditions: for % Increase in tensile strength relative to control: control 100% DI water. How it is done:
(§1) Hair tensile strength can be measured according to the following general method. “Test Compound” can be any compound described herein. • 1. Collect about 3 hair strands from tress; • 2. Clamp both ends of a single hair strand and pull taut; • 3. Line up ruler with hair strand and cut a 2.75 cm section; • 4. Repeat steps 2-3 until 30 segments are produced; • 5. Create a specific w/w % solution of deionized water and Test Compound (e.g., Compound (1)) in 50 ml beaker; • 6. Saturate the hair for a specific amount of time in the solution, then remove and dry for 30 minutes; • 7. Using a 4 decimal precision balance, weigh all hairs at once and calculate the average; • 8. Insert hair into the digital force gauge; • 9. Separate the two clamps until the hair has broken into two separate pieces; and • 10. Note the maximum force required to break the hair as well as the distance the digital force gauge has moved.
(§2) Control experiments can also be conducted according to the procedure described above, for example by omitting Test Compound from the solution or replacing Test Compound with compound for comparison (e.g., glycolic acid).

Experiment [2] can be described thus: Hair elongation percentage test. As to conditions: for % Increase in elongation percentage relative to control: control 100% DI water. The protocol: as §1, §2
A short description of experiment [3]: Elongation of bleached hair at break stress (Formulation 1). As to conditions: 5 w/w % solution in DI water. The protocol: A combination formulation (Formulation 1) comprising Compound (1) and glycolic acid as an aqueous mixture was tested. Formulation 1 comprises a 1:1 ratio (by weight) of Compound (1) to glycolic acid. To prepare Formulation 1, a mixture containing 50 w/w % Compound (1) and 50 w/w % glycolic acid (crystalline) was prepared (Mixture A). Mixture A was diluted with deionized (DI) water (aqua) until the solution was 5 w/wt % Mixture A.
Formulation 1 was independently analyzed to determine whether elongation of bleached hair at break stress increased compared to both control and glycolic acid solutions. The glycolic acid solution was a 5 w/w % glycolic acid solution in DI water. The control was DI water alone.

Where [4] appears, read: 2.5 w/w % solution in deionized water.
Where [5] appears, read: 1 w/w % solution in deionized water.

On to `O=C(O)CO` [Glycolic Acid, glycolic acid, reference compound], for which the “Tensile strength (Gf/Denier)” value in experiment [1] (setting [4]) is reported as 1.219 gf/denier. Also, in experiment [1] (2.5 w/w % solution), the “% Increase in tensile strength relative to control” value was 17.8%. The same compound yielded an Elongation % in experiment [2] (setting [4]) of 26.71%. For the same compound, the “% Increase in elongation percentage relative to control” value in experiment [2] (2.5 w/w % solution) stood at 5.87%. Also, the “Mean Elongation %” value in experiment [3] was determined as 55.3%. Also, in experiment [3] (control DI water), the “Difference from Control (%)” value is 7.38%.
For `N[C@@H](CO)C(=O)OCC(=O)O` [Compound (1)], the “Tensile strength (Gf/Denier)” value in experiment [1] (setting [5]) is 1.210 gf/denier; in experiment [1] (setting [4]), 1.490 gf/denier. Also, the “% Increase in tensile strength relative to control” value in experiment [1] (1 w/w % solution) was determined as 16.9%; in experiment [1] (2.5 w/w % solution), 43.9%. Besides, in experiment [1] (2.5 w/w % solution vs 2.5 w/w % glycolic acid, FIG. 2), the “Tensile strength of hair compared to glycolic acid (in words)” value is given as “significantly increases tensile strength of hair as compared to glycolic acid”. For the same compound, in experiment [1] (control hair treated 100% DI water, FIG. 1), the “Tensile strength of hair relative to control (in words)” value is “significantly increases tensile strength of hair, relative to control”. The Elongation % came out at 25.4% in experiment [2] (setting [5]) and 29.9% in experiment [2] (setting [4]). Besides, the “% Increase in elongation percentage relative to control” value came to 0.67% in experiment [2] (1 w/w % solution) and 18.51% in experiment [2] (2.5 w/w % solution). For the same compound, the “Elongation percentage of hair compared to glycolic acid (in words)” value in experiment [2] (2.5 w/w % solution vs 2.5 w/w % glycolic acid, FIG. 4) is listed as “significantly increases elongation percentage of hair”. Further, the “Elongation percentage of hair relative to control (in words)” value in experiment [2] (control hair treated 100% DI water, FIG. 3) is given as “increases elongation percentage of hair”.
